The values below come from patent publication US7205304B2, “Sulfonyl-Derivatives as novel inhibitors of histone deacetylase” (Janssen Pharmaceutica N.V., priority 2002, dated 2007).

Broadly, the solubility is how much of the substance goes into solution per volume.

Converted amounts (≈) assume the structure as drawn.

In data set [1] the test system is A2780 ovarian carcinoma cells. The data set is described as follows: Antiproliferative activity on A2780 cells (MTT). The data set is classed as cell-based, human. The conditions noted are these: Homo sapiens, A2780, 96 h, four days of incubation, read-out: Cellular activity pIC50 (converted). In short, it runs like this: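 A2780 ovarian carcinoma cells were seeded at 1500 cells/well and exposed to compound for four days, with DMSO ≤0.1%. Viability was measured by MTT (2 h, 37° C) and expressed as a percentage of untreated controls after blank subtraction. Initial single-point testing was at 10^−6 M, then full curves gave pIC50.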

In data set [2] the target is histone deacetylase (HeLa nuclear extracts). The data set is described as follows: In vitro assay for inhibition of histone deacetylase. The data set is classed as biochemical. Particulars: [3H]acetylated histone H4 peptide substrate.
A short description of data set [3]: Kinetic solubility in aqueous media (nephelometry). The format is physicochemical. The conditions noted are these: phosphate citrate buffer, pH 7.4, aqueous buffer, kinetic from dmso stock, phosphate citrate buffer pH 7.4, turbidity of three dilution steps; read-out: Solubility Score. The gist of the method: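 DMSO stock (5 mM) diluted in three consecutive steps into phosphate citrate buffer pH 7.4, in triplicate; turbidity of each dilution read by nephelometry immediately after the last step. Compounds ranked into 3 classes: score 3 if first dilution clear, 2 if first unclear but second clear.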

On to `Cc1cccc(C)c1-c1ccc(S(=O)(=O)N2CCN(c3ncc(C(=O)NO)cn3)CC2)cc1` [Compound 133], for which the IC50 in data set [1] is 1260 nM. For the same molecule, the “Enzyme activity pIC50” value in data set [2] came out at 7.869. The solubility in data set [3] was 75.8 to 454 µM (≈ 35.4 to 213 µg/mL).

With `COc1ccc(-c2ccc(S(=O)(=O)N3CCN(c4ncc(C(=O)NO)cn4)CC3)cc2)c(OC)c1OC` [Compound 134], the IC50 in data set [1] was 316 nM. Further, the “Enzyme activity pIC50” value in data set [2] came out at 7.662. Also, the solubility in data set [3] lay in the range of 75.8 to 454 µM (≈ 40.1 to 241 µg/mL).

On to `CN(C)c1cccc(-c2ccc(S(=O)(=O)N3CCN(c4ncc(C(=O)NO)cn4)CC3)cc2)c1` [Compound 135], for which the IC50 in data set [1] is 287 nM. Also, the “Enzyme activity pIC50” value in data set [2] is recorded as 7.631. Besides, in data set [3], the solubility is over 454 µM.

Consider `Cc1cc(C)cc(-c2ccc(S(=O)(=O)N3CCN(c4ncc(C(=O)NO)cn4)CC3)cc2)c1` [Compound 136], for which the IC50 in data set [1] is 513 nM. For the same molecule, the “Enzyme activity pIC50” value in data set [2] worked out at 7.288. The solubility in data set [3] is under 75.8 µM.

`O=C(NO)c1cnc(N2CCN(S(=O)(=O)c3ccc(-c4ccc[nH]4)cc3)CC2)nc1` [Compound 137]: the IC50 in data set [1] is 1120 nM. In data set [2], the “Enzyme activity pIC50” value was found to be 7.169. In data set [3], the solubility is 75.8 to 454 µM (≈ 32.5 to 195 µg/mL).

On to `COc1cncc(-c2ccc(S(=O)(=O)N3CCN(c4ncc(C(=O)NO)cn4)CC3)cc2)c1` [Compound 138], for which the IC50 in data set [1] was 249 nM. Besides, the “Enzyme activity pIC50” value in data set [2] turned out to be 7.545. Moreover, in data set [3], the solubility was in the range of 75.8 to 454 µM (≈ 35.7 to 214 µg/mL).

For the molecule `O=C(NO)c1ccc(N2CCN(S(=O)(=O)c3ccc4ccccc4c3)CC2)nc1` [Compound 142], the IC50 in data set [1] was 286 nM. The “Enzyme activity pIC50” value in data set [2] came out at 8.01. For the same molecule, in data set [3], the solubility is over 454 µM.

Regarding `CN(C)CC1CN(c2ncc(C(=O)NO)cn2)CCN1S(=O)(=O)c1ccc(-c2ccccc2)cc1` (stereo not drawn) [Compound 143], the IC50 in data set [1] is 1320 nM. Further, the “Enzyme activity pIC50” value in data set [2] turned out to be 7.002. Moreover, the solubility in data set [3] is over 454 µM.

With `CN1CCN(Cc2sccc2-c2ccc(S(=O)(=O)N3CCN(c4ncc(C(=O)NO)cn4)CC3)cc2)CC1` [Compound 144], the IC50 in data set [1] is 81.5 nM. Further, the “Enzyme activity pIC50” value in data set [2] is 8.428. In addition, the solubility in data set [3] is over 454 µM.

Regarding `O=C(NO)c1cnc(N2CCN(S(=O)(=O)c3ccc(-c4ccsc4CN(CCO)CCO)cc3)CC2)nc1` [Compound 145], the IC50 in data set [1] is 279 nM. Besides, in data set [2], the “Enzyme activity pIC50” value worked out at 8.06. The solubility in data set [3] was under 75.8 µM.

As for `CN(C)S(=O)(=O)N1CCN(Cc2sccc2-c2ccc(S(=O)(=O)N3CCN(c4ncc(C(=O)NO)cn4)CC3)cc2)CC1` [Compound 147], the IC50 in data set [1] was 693 nM. In addition, in data set [2], the “Enzyme activity pIC50” value is recorded as 6.765. For the same molecule, in data set [3], the solubility was under 75.8 µM.

On to `O=C(NO)c1cnc(N2CCN(S(=O)(=O)c3ccc(-c4ccsc4CN4CCOCC4)cc3)CC2)nc1` [Compound 148], for which the IC50 in data set [1] was 176 nM. Besides, in data set [2], the “Enzyme activity pIC50” value is reported as 7.94. In data set [3], the solubility is under 75.8 µM.

As to `COC1CCN(Cc2sccc2-c2ccc(S(=O)(=O)N3CCN(c4ncc(C(=O)NO)cn4)CC3)cc2)CC1` [Compound 149], in data set [1], the IC50 was 144 nM. In addition, the “Enzyme activity pIC50” value in data set [2] was found to be 8.175. For the same molecule, the solubility in data set [3] lay in the range of 75.8 to 454 µM (≈ 43.4 to 260 µg/mL).

Regarding `O=C(NO)c1cnc(N2CCN(S(=O)(=O)c3ccc(-c4ccsc4CN4CCN(CCOCCO)CC4)cc3)CC2)nc1` [Compound 150], the IC50 in data set [1] is 164 nM. Also, the “Enzyme activity pIC50” value in data set [2] turned out to be 8.011. For the same molecule, the solubility in data set [3] lay in the range of 75.8 to 454 µM (≈ 47.9 to 287 µg/mL).

With `CN(CCO)Cc1sccc1-c1ccc(S(=O)(=O)N2CCN(c3ncc(C(=O)NO)cn3)CC2)cc1` [Compound 151], the IC50 in data set [1] was 137 nM. Moreover, in data set [2], the “Enzyme activity pIC50” value is 8.152. Moreover, the solubility in data set [3] is over 454 µM.

For the molecule `O=C(NO)c1cnc(N2CCN(S(=O)(=O)c3ccc(-c4ccsc4CN4CCN(CCO)CC4)cc3)CC2)nc1` [Compound 152], in data set [1], the IC50 is 164 nM. The “Enzyme activity pIC50” value in data set [2] was 8.156. Besides, the solubility in data set [3] was over 454 µM.

Consider `CN(C)CCCOc1ccccc1-c1ccc(S(=O)(=O)N2CCN(c3ncc(C(=O)NO)cn3)CC2)cc1` [Compound 154], for which the IC50 in data set [1] is 64 nM. The “Enzyme activity pIC50” value in data set [2] was determined as 8.869. In addition, the solubility in data set [3] is under 75.8 µM.

On to `CN1CCN(Cc2ccccc2-c2ccc(S(=O)(=O)N3CCN(c4ncc(C(=O)NO)cn4)CC3)cc2)CC1` [Compound 157], for which the IC50 in data set [1] is 96.2 nM. Also, the “Enzyme activity pIC50” value in data set [2] stood at 8.228. Further, in data set [3], the solubility is over 454 µM.

For `O=C(NO)c1cnc(N2CCN(S(=O)(=O)c3ccc(-c4ccccc4CN4CCOCC4)cc3)CC2)nc1` [Compound 158], the IC50 in data set [1] was 446 nM. In addition, the “Enzyme activity pIC50” value in data set [2] was 7.784. In addition, in data set [3], the solubility is 75.8 to 454 µM (≈ 40.8 to 245 µg/mL).

Consider `CN(C)CCN(C)Cc1ccccc1-c1ccc(S(=O)(=O)N2CCN(c3ncc(C(=O)NO)cn3)CC2)cc1` [Compound 159], for which the IC50 in data set [1] was 95.9 nM. Further, the “Enzyme activity pIC50” value in data set [2] stood at 8.61. Also, the solubility in data set [3] is over 454 µM.

Take `O=C(NO)c1cnc(N2CCN(S(=O)(=O)c3ccc(-c4ccccc4CN(CCO)CCO)cc3)CC2)nc1` [Compound 160]: the IC50 in data set [1] was 278 nM. The “Enzyme activity pIC50” value in data set [2] is on record as 8.272. Further, the solubility in data set [3] fell in the range of 75.8 to 454 µM (≈ 42.2 to 253 µg/mL).

`CN(C)CCN(C)Cc1ccc(-c2ccc(S(=O)(=O)N3CCN(c4ncc(C(=O)NO)cn4)CC3)cc2)cc1` [Compound 164]: the IC50 in data set [1] is 48.3 nM. For the same molecule, the “Enzyme activity pIC50” value in data set [2] came out at 8.308. Also, in data set [3], the solubility lay within 75.8 to 454 µM (≈ 42 to 252 µg/mL).

With `O=C(NO)c1cnc(N2CCN(S(=O)(=O)c3ccc(-c4ccc(CN5CCN(CCOCCO)CC5)cc4)cc3)CC2)nc1` [Compound 165], the IC50 in data set [1] is 55.6 nM. Further, in data set [2], the “Enzyme activity pIC50” value was found to be 7.947. In addition, the solubility in data set [3] was under 75.8 µM.

Take `O=C(NO)c1cnc(N2CCN(S(=O)(=O)c3ccc(-c4ccc(CN5CCN(CCO)CC5)cc4)cc3)CC2)nc1` [Compound 166]: in data set [1], the IC50 is 61.4 nM. In addition, the “Enzyme activity pIC50” value in data set [2] was 7.969. The solubility in data set [3] was under 75.8 µM.

Take `O=C(NO)c1cnc(N2CCN(S(=O)(=O)c3ccc(-c4cccc(CN5CCOCC5)c4)cc3)CC2)nc1` [Compound 167]: the IC50 in data set [1] was 108 nM. In addition, the “Enzyme activity pIC50” value in data set [2] is 7.579. Also, the solubility in data set [3] was over 454 µM.

For the molecule `CN(C)Cc1cccc(-c2ccc(S(=O)(=O)N3CCN(c4ncc(C(=O)NO)cn4)CC3)cc2)c1` [Compound 168], in data set [1], the IC50 was 63.8 nM. In data set [2], the “Enzyme activity pIC50” value came to 8.766. The solubility in data set [3] is over 454 µM.

On to `CN1CCN(Cc2cccc(-c3ccc(S(=O)(=O)N4CCN(c5ncc(C(=O)NO)cn5)CC4)cc3)c2)CC1` [Compound 169], for which the IC50 in data set [1] was 72.4 nM. In data set [2], the “Enzyme activity pIC50” value amounted to 8.338. In data set [3], the solubility was over 454 µM.

Take `CC(C)N(C)Cc1cccc(-c2ccc(S(=O)(=O)N3CCN(c4ncc(C(=O)NO)cn4)CC3)cc2)c1` [Compound 170]: the IC50 in data set [1] is 65.3 nM. The “Enzyme activity pIC50” value in data set [2] is reported as 8.227. In addition, the solubility in data set [3] was over 454 µM.

Consider `O=C(NO)c1cnc(N2CCN(S(=O)(=O)c3ccc(-c4cccc(CN5CCCC5)c4)cc3)CC2)nc1` [Compound 171], for which the IC50 in data set [1] was 47.1 nM. In addition, the “Enzyme activity pIC50” value in data set [2] came out at 8.45. The solubility in data set [3] is over 454 µM.

For `CN(C)CCc1cccc(-c2ccc(S(=O)(=O)N3CCN(c4ncc(C(=O)NO)cn4)CC3)cc2)c1` [Compound 172], the IC50 in data set [1] is 64.4 nM. In addition, the “Enzyme activity pIC50” value in data set [2] is reported as 8.566. Further, the solubility in data set [3] is over 454 µM.
